Data reported in the supplement of paper PMC13380429.
Counter-ions that a name gives are not always drawn.

Key:
Conditions in all cases: 72 h
Vero E6 [1] = assay: relative viability EC50 (midpoint between 100% and the lowest measured viability); higher = less toxic
Caco-2 [2] = assay: as above
U2OS [3] = assay: as above
HepG2 [4] = assay: as above
Vero E6 [5] = assay: cell viability relative to DMSO; higher = less toxic
Caco-2 [6] = assay: as above
U2OS [7] = assay: as above
Calu-3 [8] = assay: as above
HepG2 [9] = assay: as above
Vero E6 [10] = assay: drug sensitivity score (DSS) for viability; higher = more toxic; extreme values may be limits of the assay
Caco-2 [11] = assay: as above
U2OS [12] = assay: as above
Calu-3 [13] = assay: as above
HepG2 [14] = assay: as above

| SMILES | relative viability EC50 (Vero E6 [1]) [nM] | relative viability EC50 (Caco-2 [2]) [nM] | relative viability EC50 (U2OS [3]) [nM] | relative viability EC50 (HepG2 [4]) [nM] | cell viability (Vero E6 [5]; 1 nM) [%] | cell viability (Vero E6 [5]; 10 nM) [%] | cell viability (Vero E6 [5]; 100 nM) [%] | cell viability (Vero E6 [5]; 1000 nM) [%] | cell viability (Vero E6 [5]; 10000 nM) [%] | cell viability (Caco-2 [6]; 1 nM) [%] | cell viability (Caco-2 [6]; 10 nM) [%] | cell viability (Caco-2 [6]; 100 nM) [%] | cell viability (Caco-2 [6]; 1000 nM) [%] | cell viability (Caco-2 [6]; 10000 nM) [%] | cell viability (U2OS [7]; 1 nM) [%] | cell viability (U2OS [7]; 10 nM) [%] | cell viability (U2OS [7]; 100 nM) [%] | cell viability (U2OS [7]; 1000 nM) [%] | cell viability (U2OS [7]; 10000 nM) [%] | cell viability (Calu-3 [8]; 1 nM) [%] | cell viability (Calu-3 [8]; 10 nM) [%] | cell viability (Calu-3 [8]; 100 nM) [%] | cell viability (Calu-3 [8]; 1000 nM) [%] | cell viability (Calu-3 [8]; 10000 nM) [%] | cell viability (HepG2 [9]; 1 nM) [%] | cell viability (HepG2 [9]; 10 nM) [%] | cell viability (HepG2 [9]; 100 nM) [%] | cell viability (HepG2 [9]; 1000 nM) [%] | cell viability (HepG2 [9]; 10000 nM) [%] | drug sensitivity score (Vero E6 [10]) | drug sensitivity score (Caco-2 [11]) | drug sensitivity score (U2OS [12]) | drug sensitivity score (Calu-3 [13]) | drug sensitivity score (HepG2 [14]) |
| --- | --- | --- | --- | --- | --- | --- | --- | --- | --- | --- | --- | --- | --- | --- | --- | --- | --- | --- | --- | --- | --- | --- | --- | --- | --- | --- | --- | --- | --- | --- | --- | --- | --- | --- |
| CC(=O)O/N=C1\C(=O)N(Cc2cc(Cl)ccc2Cl)c2ccc(Cl)cc21 | > 10000 | > 10000 | > 10000 | > 10000 | 98.3 | 105 | 97.3 | 98.7 | 97.9 | 97.3 | 92 | 104 | 91 | 83.9 | 100 | 99 | 97.7 | 96.6 | 97.3 | 103 | 90.7 | 93.9 | 98.4 | 61.8 | 97.9 | 97.7 | 104 | 108 | 86.9 | 0 | 1 | 0 | 2.1 | 0 |
| N[C@@H](CC(=O)Nc1ccc(Oc2cc(F)c(F)cc2Br)cc1)C(=O)O | > 10000 | > 10000 | > 10000 | > 10000 | 91 | 98.3 | 95.1 | 101 | 105 | 94.8 | 88.1 | 98.6 | 87 | 99 | 99 | 94.4 | 101 | 94.7 | 102 |  |  |  |  |  | 94.2 | 92.6 | 91.7 | 111 | 104 | 0 | 0 | 0 |  | 0 |
| O=C(Nc1ccc([N+](=O)[O-])cc1O)Nc1ccccc1Br | 1660 | 1200 | 1720 | 2190 | 101 | 98.3 | 94.5 | 85.7 | 34.8 | 98.6 | 103 | 102 | 77 | 40.5 | 98.3 | 99.6 | 96.9 | 87 | 36.6 | 102 | 98.2 | 88.4 | 108 | 59.3 | 89.9 | 101 | 89.7 | 92 | 32.5 | 5.9 | 6.4 | 5.6 | 1.6 | 5.1 |
| CCN(CC)CCOC(=O)C(Cc1cccc2ccccc12)CC1CCCO1 (mixture of isomers) [naftidrofuryl] |  |  |  |  |  |  |  |  |  |  |  |  |  |  |  |  |  |  |  |  |  |  |  |  |  |  |  |  |  | 0.2 |  |  | 0 |  |
| c1ccc(CCCCN2CCC(c3ccccc3)CC2)cc1 [4-PPBP] | > 10000 | > 10000 | > 10000 | > 10000 | 100 | 102 | 102 | 99.7 | 90 | 94.7 | 94.9 | 89.8 | 86.1 | 84.4 | 90.7 | 91.2 | 96.1 | 94.7 | 84.6 | 93 | 111 | 96.7 | 95.1 | 69.3 | 99.8 | 103 | 101 | 93.8 | 77.9 | 0 | 1.4 | 0 | 2.2 | 1.6 |
| COc1cc(N2CCC(N3CCN(C)CC3)CC2)ccc1Nc1ncnc(Nc2ccccc2S(=O)(=O)C(C)C)n1 [ASP3026] |  |  |  | 1980 | 92.9 | 97.9 | 100 | 90.9 | 51.7 | 102 | 101 | 95.7 | 92.7 | 68.6 | 100 | 94.5 | 99.6 | 98.5 | 70.9 |  |  |  |  |  | 107 | 96.6 | 99.7 | 88.7 | 25.2 | 4 | 2.5 | 1.4 |  | 6 |
| COc1cccc(-c2cc(NCc3ccc4c(c3)OCO4)nc(N)n2)c1 [BML-284] | 349 | 707 | 590 | 572 | 102 | 99.9 | 101 | 29.8 | 27.6 | 104 | 93.4 | 102 | 62.4 | 46.6 | 92.8 | 97 | 95.8 | 49.8 | 27.7 | 104 | 92.9 | 102 | 66.9 | 62.4 | 97.7 | 97.2 | 93.9 | 52.9 | 30.5 | 12.8 | 7.3 | 10.3 | 5.8 | 9.8 |
| N=c1ccn2c(n1)O[C@H]1[C@H](O)[C@@H](CO)O[C@H]12 [Cyclocytidine HCl] |  | > 10000 |  | 115 | 98.1 | 97.1 | 98.5 | 87.4 | 58.3 | 88.4 | 99.2 | 83.1 | 80.6 | 77.8 | 95.1 | 99.9 | 99.8 | 97.2 | 74.8 | 91.5 | 99.2 | 101 | 93 | 65.9 | 104 | 103 | 74.1 | 38 | 37.7 | 4 | 3.7 | 1.4 | 2.7 | 15 |
| Cc1c(C)c2c(c(C)c1OC(=O)CCC(=O)O)CC[C@@](C)(CCC[C@H](C)CCC[C@H](C)CCCC(C)C)O2 [D-alpha-tocopheryl-succinate] | > 10000 | > 10000 |  | > 10000 | 97.8 | 101 | 97.9 | 102 | 111 | 98.2 | 104 | 106 | 96.5 | 102 |  |  |  |  |  |  |  |  |  |  | 95.4 | 109 | 95.3 | 106 | 113 | 0 | 0 |  |  | 0 |
| COc1cc(OC)c(/C=C2/C(=O)Nc3ccccc32)c(OC)c1 [IC261] | 991 |  | 1580 | 2240 | 99 | 99.2 | 102 | 69.2 | 39.1 | 96.9 | 92.9 | 95.1 | 90.5 | 57.6 | 95 | 99.8 | 98.5 | 86 | 41.6 | 90.1 | 97 | 95.9 | 96.7 | 61.8 | 97.5 | 102 | 108 | 92.9 | 37.1 | 7.2 | 3.7 | 5.4 | 2.4 | 4.6 |
| NC[C@@H]1O[C@H](O[C@@H]2[C@@H](CO)OC(O[C@@H]3[C@@H](O)[C@H](N)C[C@H](N)[C@H]3OC3O[C@H](CN)[C@@H](O)[C@H](O)[C@H]3N)[C@@H]2O)[C@H](N)[C@@H](O)[C@@H]1O (stereo not given in full) [NEOMYCIN TRISULFATE] |  | > 10000 |  |  |  |  |  |  |  | 96.6 | 103 | 96.3 | 91.7 | 97.3 |  |  |  |  |  |  |  |  |  |  |  |  |  |  |  |  | 0 |  |  |  |
| CS(=O)(=O)c1ccc(Oc2cc(F)cc(C#N)c2)c2c1[C@H](O)C(F)(F)C2 [PT-2385] | > 10000 | > 10000 | > 10000 | > 10000 | 101 | 99.6 | 100 | 96.9 | 105 | 102 | 94.9 | 88.9 | 86.3 | 95.2 | 103 | 97.3 | 98.7 | 100 | 99.4 |  |  |  |  |  | 103 | 107 | 97.4 | 97.2 | 104 | 0 | 1.7 | 0 |  | 0 |
| N#Cc1c(Oc2ccc(F)c(NC(=O)Cc3cccc(C(F)(F)F)c3)c2)ccc2nc(NC(=O)C3CC3)sc12 [TAK-632] | 1370 |  | 3050 | 289 | 100 | 106 | 104 | 79 | 32.3 | 100 | 99.4 | 91.8 | 84.9 | 55.6 | 97.9 | 102 | 94.8 | 99 | 37.8 | 105 | 105 | 110 | 93 | 61.6 | 99.9 | 106 | 85.1 | 29 | 17.2 | 6.8 | 3.8 | 3.5 | 3 | 14.9 |
| O=C(NNC(=O)c1ccc(CNS(=O)(=O)c2ccc(F)c(Cl)c2)cc1)c1ccccc1 [TCN201] | > 10000 | > 10000 | > 10000 | > 10000 | 104 | 98.5 | 98.4 | 102 | 102 | 109 | 108 | 99.1 | 99.8 | 103 | 96.3 | 99.8 | 97.7 | 94 | 96.4 |  |  |  |  |  | 89.3 | 108 | 97 | 90.7 | 97.7 | 0 | 0 | 0 |  | 0 |
| CN(C)CCOc1ccc(/C(=C(/CCCl)c2ccccc2)c2ccccc2)cc1 [Toremifene citrate] | > 10000 |  | > 10000 |  | 99.6 | 99.3 | 99.8 | 97.6 | 91.9 | 109 | 98.8 | 93.7 | 96.3 | 60.4 | 106 | 103 | 105 | 99 | 87.8 | 94.1 | 100 | 88.7 | 90.4 | 57.5 | 110 | 103 | 104 | 90 | 68.8 | 0 | 2.6 | 0.1 | 3.4 | 2.8 |
